# The METLIN SMRT retention time set (Domingo-Almenara et al. 2019)
# Experiment: gradient 5% acetonitrile 3 min, to 50% in 2 min, to 85% in 15 min, held 3 min, 100 µL/min
# Conditions: column: Zorbax Extend-C18 2.1 x 50 mm; eluents: water / acetonitrile, 0.1% formic acid
# Method in brief: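 Over 3 months, pure standards in mixtures of ~100 molecules were run by HPLC coupled to a quadrupole time-of-flight mass spectrometer in positive and negative ionization mode. The column was a Zorbax Extend-C18 (2.1 × 50 mm, 1.8 μm) at 100 μL/min, eluted with water and acetonitrile each holding 0.1% formic acid, with 40 μL dead and 900 μL dwell volumes. Retention time was determined from adduct peaks chosen by software and checked manually.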
row,Structure (SMILES),RP-LC retention time
1,Cc1[nH]c(C(=O)N2CCC(CC(=O)N3CCOCC3)CC2)c(C)c1C(=O)OC(C)C,702 s
2,O=C(CCn1c(CO)nc2ccccc21)c1ccccc1,578 s
3,CC1CCN(C(=O)c2cc(S(=O)(=O)N(C)CC(=O)NC3CC3)cn2C)CC1,693 s
4,CCCC(=O)N1CCC2(CC1)C(=O)N(C)c1ccccc12,764 s
5,O=C1CCCN1CCCNc1ccc2nnc(CCC(=O)N3CCN(c4ccccn4)CC3)n2n1,557 s
6,Cc1nn(CC(=O)NCCN2CCCCC2)c(=O)c2nc(-c3ccccc3)sc12,623 s
7,N#Cc1cccc(S(=O)(=O)NC2CCc3nn(CC4CC4)c(=O)n3CC2)c1 (configuration not stated),706 s
8,O=C(Cn1cnc2nc(N3CCCC(C(=O)NC4CC4)C3)sc2c1=O)Nc1ccccc1F (configuration not stated),668 s
9,CCN(CCCNC(=O)C1CCCN(c2ncnc3c2nc2n3CCCCC2)C1)c1cccc(C)c1 (configuration not stated),647 s
10,CCCc1nnsc1C(=O)Nc1nnc(Cc2ccc(F)cc2)o1,890 s
11,Cc1nc(N2CCOCC2)c2c(C(=O)N3CCN(c4ccc(Cl)cc4)CC3)c(C)oc2n1,895 s
12,Cc1ccc(Cl)cc1N1C(=O)CN(S(C)(=O)=O)CC1(C)C(=O)NC1CCCCCCC1 (configuration not stated),980 s
13,CC(C)N1CCN(C(=O)c2cn3ccnc(-c4ccccc4)c3n2)CC1,602 s
14,CCOC(=O)C(C)NC(=O)NCC(=O)N1CCc2ccccc21 (configuration not stated),696 s
15,Cc1ccc(NC(=O)Cn2ncc3c(c2=O)N(CC2CC2)C(=O)CS3)c(Cl)c1,846 s
16,Cc1cccc(CCNC(=O)C2CCCN(c3ncnc4c3nc3n4CCCCC3)C2)c1 (configuration not stated),819 s
17,COc1cc([C@@H]2c3cc4c(cc3[C@H](O)[C@@H](CO)[C@@H]2C(=O)NCc2cc(F)ccc2F)OCO4)cc(OC)c1OC,718 s
18,CCOC(=O)C1CCN([C@H]2CS(=O)(=O)C[C@@H]2S(=O)(=O)c2ccc(F)cc2)CC1,889 s

row,Structure (SMILES),RP-LC retention time
1,O=C(NCCN1CCCC1)C1CCN(c2nc(-c3ccc(Cl)cc3)no2)CC1,603 s
2,Cc1ccc(-c2cc3n(n2)CCCN(C(=O)c2cc(CN4CCOCC4)on2)C3)o1,617 s
3,O=C(NCCC1=CCCCC1)C(=O)NCC1(CO)CC1,713 s
4,O=C(NCc1noc(C2CCCC2)n1)c1ccccc1,796 s
5,O=C(c1ccc2c(c1)OCO2)N1CCN(c2cc(-c3cccs3)[nH]n2)CC1,732 s
6,CC(C)CCN1C[C@@H](CO)[C@H](c2nc(-c3cccnc3)no2)C1,583 s
7,CCOC(=O)C1=C(C)N(CC(=O)NC2CCCC2)c2ncnn2C1c1ccccc1 (configuration not stated),666 s
8,O=C(NCCc1cccs1)C1CCN(C(=O)c2ncn3c2COC(c2ccccc2)C3)CC1 (configuration not stated),738 s
9,CN1CCC=C(C(=O)N2c3ccccc3Sc3ccc(Cl)cc32)C1,762 s
10,CCC(=O)Nc1ccc2c(c1)N(C(=O)c1ccco1)CCC2,725 s
11,CC(Cc1ccco1)NC(=O)C1CCN(S(=O)(=O)c2ccc3c(c2)NC(=O)CO3)CC1 (configuration not stated),726 s
12,CN(C)C(=O)c1cc2c(s1)CCC(C(=O)NC1CCCC1)C2 (configuration not stated),696 s
13,c1ccc(-c2nc(CC3CCNC3)no2)cc1 (configuration not stated),608 s
14,CCOC(=O)c1cccc(NC(=O)N2CCC3(CC2)NC(=O)c2ccccc2O3)c1,804 s
15,Cc1ccc2c(=O)c(C(=O)N3CCCCC3)cn(CC(=O)NC3CCCC3)c2n1,694 s
16,O=C(c1c(OCC2CC2)cc(=O)n2c1CCCCC2)N1CCc2ccccc2C1,837 s
17,O=C(CCC[C@@H]1[C@H]2CCCN3CCC[C@@H](CN1C(=O)c1cccnc1)[C@@H]23)N1CCN(c2ncccn2)CC1,578 s
18,Cc1cc(CN2CCC(CNC(=O)C(=O)Nc3cccnc3)CC2)c(C)o1,681 s

# Now from value to molecule:
row,RP-LC retention time,Structure (SMILES)
1,985 s,CCc1cccc(C)c1Nc1c(-c2ccc(Cl)cc2)nc2nc(C)cc(C)n12
2,742 s,CCn1cnc(S(=O)(=O)N2CCCC(C(=O)Nc3ccc(F)cc3F)C2)c1 (configuration not stated)
3,608 s,CCOC(=O)CNC(=O)NCCc1nc2cccnc2n1-c1ccccc1
4,1060 s,CCc1nc(-c2csc(S(=O)(=O)N3CCCC(C(=O)Nc4ccc(F)cc4F)C3)c2)no1 (configuration not stated)
5,677 s,COc1ccc(-c2nc(CNC(=O)C3CCOC3)no2)cc1 (configuration not stated)
6,648 s,COC(=O)c1ccc(NC(=O)CSc2nnc(-c3cccs3)o2)cc1
7,644 s,COCc1nc(NCc2ccc(OC)c(OC)c2)ncc1C(=O)O
8,650 s,Cc1cc(C)n(-c2nc(CC(=O)Nc3ccc(N(C)C)cc3)cs2)n1
9,1050 s,Cc1cc(C)cc(NC(=O)N2CCc3cn(C)c4cccc(c34)C2)c1
10,1200 s,Cc1sc(NC(=O)Cc2csc(-c3ccccc3)n2)nc1-c1ccc(F)cc1
11,951 s,COc1ccccc1-c1nnc(-c2cc(S(=O)(=O)N3CCCC3)ccc2Cl)o1
12,985 s,Cc1cc(C)n2c(Nc3ccc(C(C)C)cc3)c(-c3ccc(Cl)cc3)nc2n1
13,798 s,CCOc1cc(=O)n2c(c1C(=O)Nc1ccc(Br)cc1)CCCC2
14,1070 s,Cc1ccc(S(=O)(=O)Cc2ccc(-c3nc(-c4ccc5oc(C)nc5c4)no3)cc2)cc1
15,708 s,COC(=O)c1cccc(NC(=O)c2c[nH]c3ncccc23)c1
16,568 s,Cc1nc2cccnc2n1-c1cccc(C(=O)N2CCN(c3ccccn3)CC2)c1
17,595 s,COc1ccc(C2C(C(=O)NCc3ccccn3)c3cc(OC)c(OC)cc3C(=O)N2C)cc1OC (configuration not stated)
18,881 s,COc1ccc(C(O)Cn2ccn3nc(-c4ccc(C)c(C)c4)cc3c2=O)cc1OC (configuration not stated)
19,944 s,O=S(=O)(c1cccn2c(SCc3ccc(F)cc3)nnc12)N1CCc2ccccc2C1
20,783 s,CN1C(=O)c2cccnc2Sc2cc(NC(=O)c3c(F)cccc3Cl)ccc21
21,818 s,Cc1ccc(Nc2c(-c3cc(Br)ccc3F)nc3cc(C)ccn23)cc1
22,1170 s,CCOC(=O)C1CCCN(S(=O)(=O)c2cc(-c3nc(C)c(C)s3)sc2C)C1 (configuration not stated)
23,758 s,Cc1ccc(-n2cc3c(c(C(=O)N4CCCC4)c2=O)CC(C)(C)CC3=O)cc1
24,831 s,CCn1cc(S(=O)(=O)Nc2ccccc2OC)c2cccnc21
25,963 s,Cc1ccc(NC(=O)Cn2cccc2-c2nnc(C3CCC3)o2)c(C)c1
26,950 s,CCC(C)(C)C(=O)NC1CCN(C2=NS(=O)(=O)C(c3ccc(C)c(C)c3)=C2C)CC1

row,RP-LC retention time,Structure (SMILES)
1,1060 s,COc1ccc(-n2c(=O)c3sccc3n(Cc3nc(-c4ccc(OC(C)C)cc4)no3)c2=O)cc1
2,1010 s,Clc1ccc(Cc2nc(-c3cccc(-c4ccn[nH]4)c3)no2)cc1
3,696 s,COc1ccc(NC(=O)Nc2c(-c3cccc(C)c3)nc3ccccn23)c(OC)c1
4,757 s,CN(C)c1ccc(C(=O)N2CCN(c3cc(-c4ccccc4)[nH]n3)CC2)cc1
5,1010 s,COc1ccc(-c2cc3c(=O)n(Cc4cc(C)ccc4C)ccn3n2)cc1OC
6,1150 s,C/C(=C\C(=O)Nc1ccccc1C(=O)O)c1ccc2ccccc2c1
7,1100 s,Cc1nc(-c2cc(S(=O)(=O)Nc3ccc(Br)cc3C)c(C)s2)cs1
8,771 s,Cc1nc2cc(NC(=O)COc3ccccc3)ccc2s1
9,704 s,Cc1ccn2cc(C(=O)NCc3ccc(Cl)cc3)nc2c1
10,1120 s,N#Cc1cccc(NC(=O)C2CCCN(S(=O)(=O)c3cc(-c4noc(C5CCC5)n4)cs3)C2)c1 (configuration not stated)
11,945 s,CCOc1ccc(-c2noc(Cn3c(=O)n(-c4ccccc4F)c(=O)c4sccc43)n2)cc1OC
12,987 s,CCCc1ccc(S(=O)(=O)N2CCC(OCc3noc(C4CCCO4)n3)CC2)cc1 (configuration not stated)
13,929 s,COc1ccc(-n2ccn3cc(-c4ccc(F)cc4F)nc3c2=O)cc1Cl
14,1050 s,COc1cccc(-c2nnc(Cc3nc(-c4ccc(SC)cc4)no3)o2)c1
15,1250 s,Cc1ccc(CNC(=O)c2cc(C(C)C)n3nccc3n2)cc1
16,901 s,CC(C)Cn1ccc2c(cc(C(=O)NCc3cccc(Br)c3)n2C)c1=O
17,836 s,CCc1cccc(NC(=O)C2CCCN2S(=O)(=O)c2cc3c(cc2Cl)NC(=O)CO3)c1 (configuration not stated)
18,1010 s,CC(=O)N1CCc2sc(S(=O)(=O)N3CCN(c4cc(C)ccc4C)CC3)cc2C1
19,1160 s,CCCCn1c(=O)c2ccccc2n(Cc2nc(-c3cc(OC)cc(OC)c3)no2)c1=O
20,1100 s,CCCN1C(=O)COc2ccc(-c3noc(COc4ccccc4)n3)cc21
21,662 s,COc1ccc(S(=O)(=O)Nc2cc(-c3cn4ccc(C)cc4n3)ccc2C)cc1
22,648 s,Cc1cc(Cl)ccc1NC(=O)N1CCC(c2nc3ccncc3n2C(C)C)C1 (configuration not stated)
23,685 s,CN(C)CCNC(=O)C1CCN(C(=O)c2cc3ccsc3n2Cc2ccc(Cl)cc2)CC1
24,590 s,O=C(c1cc(-c2ccncc2)n[nH]1)N1CCN(C(=O)c2ccc(Br)o2)CC1
25,1100 s,Cc1nc(OCC(=O)N2CCCCCC2)c2c(-c3ccc(F)cc3)noc2n1
